Assay results reported in patent US20250129080A1, “COMPOSITIONS AND METHODS OF USING THE SAME FOR TREATMENT OF NEURODEGENERATIVE AND MITOCHONDRIAL DISEASE” (Mitokinin, Inc., priority 2021, published 2025).
pEC50: −log10 of the molar value.

Tests used:
SKOV3 cells = test: In vitro mitosafety (glucose/galactose) assay; assay type: cell-based; conditions: highest mito-safe dose (gal/glc >0.80, IC20, SKOV3 cells, 20 hours) divided by mt-Keima EC50
Description: Briefly, SKOV3 cells (ATCC HTB-77) were plated in DMEM (Corning 10-013-CV) medium containing 25 mM glucose or DMEM with no glucose (Gibco 11966-025) supplemented with 10 mMV galactose at 9,000 cells/well in 96 well plates (Corning costar 3610). 24 hrs later, compounds, in DMSO, were added at various concentrations to a final 0.1% DMSO for all wells. […] After a 15 minute incubation cellular ATP levels were read out using a Promega GloMax® DiscoverMicroplate Reader.
The ratio of relative CellTiter-Glo values from cells grown in galactose to cells grown in glucose was determined (gal/glc ratio). The gal/glc ratio vs concentration is then graphed, and non-linear regression is used to find the highest concentration of MTK compound at which gal/glc >0.80 (the “highest mito-safe dose”, or IC20).

[1] = tested on: HeLa cells expressing mt-Keima and YFP-Parkin (HeLa MKYP); test: Human mt-Keima mitophagy assay; assay type: cell-based; conditions: Homo sapiens, HeLa, 16 hrs with compound, then FCCP/oligomycin for 6 hours, FACS
Description: Briefly, HeLa cells expressing mt-Keima and YFP-Parkin (HeLa MKYP) were plated at 10,000 cells/well in 96 well plates along with compounds at various concentrations. Following 16 hrs of incubation, cells were treated with […] FCCP/oligomycin for 6 hours, then analyzed via FACS for the presence of mitochondria in lysosomes (as determined by an emissions spectrum shift from the pH-sensitive mt-Keima tag).

SMILES	pEC50 [1]	Mito-Safety Index (highest safe dose/EC50) (SKOV3 cells)
FC(F)(F)O[C@H]1CCN([C@H]2COc3ccccc3[C@@H]2Nc2ncnc3[nH]c(C(F)(F)F)cc23)C1 [EP-0043865, N-((3R,4S)-3-((S)-3-(trifluoromethoxy)pyrrolidin-1-yl)chroman-4-yl)-6-(trifluoromethyl)-7H-pyrrolo[2,3-d]pyrimidin-4-amine]	7.05	44.4
F[C@H]1CCN([C@H]2COc3ccccc3[C@@H]2Nc2nccc3[nH]c(C(F)(F)F)cc23)C1 [EP-0043870, N-((3R,4S)-3-((S)-3-fluoropyrrolidin-1-yl)chroman-4-yl)-2-(trifluoromethyl)-1H-pyrrolo[3,2-c]pyridin-4-amine]	6.92	67.5
FC(F)(F)c1cc2c(N[C@H]3c4ccccc4OC[C@@H]3N3CCCC3)nccc2[nH]1 [EP-0043873, N-((3R,4S)-3-(pyrrolidin-1-yl)chroman-4-yl)-2-(trifluoromethyl)-1H-pyrrolo[3,2-c]pyridin-4-amine]	6.89	71.5
FC(F)(F)c1cc2c(N[C@H]3c4ccccc4OC[C@@H]3N3CCOC4(CC4)C3)nccc2[nH]1 [EP-0043895, N-((3R,4S)-3-(4-oxa-7-azaspiro[2.5]octan-7-yl)chroman-4-yl)-2-(trifluoromethyl)-1H-pyrrolo[3,2-c]pyridin-4-amine]	6.77	94.7
COC1CN([C@H]2COc3ccccc3[C@@H]2Nc2nccc3[nH]c(C(F)(F)F)cc23)C1 [EP-0043896, N-((3R,4S)-3-(3-methoxyazetidin-1-yl)chroman-4-yl)-2-(trifluoromethyl)-1H-pyrrolo[3,2-c]pyridin-4-amine]	6.82	126.7
FC1CN([C@H]2COc3ccccc3[C@@H]2Nc2nccc3[nH]c(C(F)(F)F)cc23)C1 [EP-0043908, N-((3R,4S)-3-(3-fluoroazetidin-1-yl)chroman-4-yl)-2-(trifluoromethyl)-1H-pyrrolo[3,2-c]pyridin-4-amine]	6.70	125.0
Fc1ccc2c(c1)OC[C@H](N1CCC3(CC3)C1)[C@H]2Nc1ncnc2[nH]c(C(F)(F)F)cc12 [EP-0043913, N-((3R,4S)-7-fluoro-3-(5-azaspiro[2.4]heptan-5-yl)chroman-4-yl)-6-(trifluoromethyl)-7H-pyrrolo[2,3-d]pyrimidin-4-amine]	6.43	67.6

Continued, in another order:

pEC50 [1]	SMILES	Mito-Safety Index (highest safe dose/EC50) (SKOV3 cells)
7.40	FC(F)C1CCN([C@H]2COc3ccccc3[C@@H]2Nc2ncnc3[nH]c(C(F)(F)F)cc23)C1 (stereo partly drawn) [EP-0043845, N-((3R,4S)-3-(3-(Difluoromethyl)Pyrrolidin-1-Yl)Chroman-4-Yl)-6-(Trifluoromethyl)-7H-Pyrrolo[2,3-D]Pyrimidin-4-Amine]	95.0
6.60	C[C@@H]1CN([C@H]2COc3cc(F)ccc3[C@@H]2Nc2ncnc3c2cc(C(F)(F)F)n3C)CCO1 [EP-0043854, N-((3R,4S)-7-fluoro-3-((R)-2-methylmorpholino)chroman-4-yl)-7-methyl-6-(trifluoromethyl)-7H-pyrrolo[2,3-d]pyrimidin-4-amine]	99.6
7.15	C[C@@H]1CN([C@H]2COc3cccc(F)c3[C@@H]2Nc2ncnc3[nH]c(C(F)(F)F)cc23)CCO1 [EP-0043859, N-((3R,4S)-5-fluoro-3-((R)-2-methylmorpholino)chroman-4-yl)-6-(trifluoromethyl)-7H-pyrrolo[2,3-d]pyrimidin-4-amine]	31.4
6.77	C[C@@H]1CN([C@H]2COc3ccc(F)cc3[C@@H]2Nc2ncnc3[nH]c(C(F)(F)F)cc23)CCO1 [EP-0043863, N-((3R,4S)-6-fluoro-3-((R)-2-methylmorpholino)chroman-4-yl)-6-(trifluoromethyl)-7H-pyrrolo[2,3-d]pyrimidin-4-amine]	40.0
8.00	C[C@@H]1CN([C@H]2COc3cc(F)ccc3[C@@H]2Nc2ncnc3[nH]c(C4CCC4)cc23)CCO1 [EP-0044008, 6-cyclobutyl-N-((3R,4S)-7-fluoro-3-((R)-2-methylmorpholino)chroman-4-yl)-7H-pyrrolo[2,3-d]pyrimidin-4-amine]	2500.0
